Experimental data as given in US10858307B2, “Compositions and methods for treating liver cancer” (Golden Biotechnology Corporation, priority 2016, dated 2020).
Values after ≈ are worked out from the molar mass of the structure shown.

What was measured:
[1] = system: Human hepatoma cell lines (HepG2); experiment: MTT cell viability assay; format: cell-based; conditions: for IC50: Homo sapiens, HepG2 cells, 48 h exposure; for inhibition against liver cancer cells compared to Compound S: versus Compound S
Excerpt: The MTT (3-(4, 5-dimethylthiazol-2-yl)-2,5-diphenyl tetrazolium bromide) cell viability assay is a colorimetric assay system, which measures the reduction of a tetrazolium component (MTT) into an insoluble blue/purple colored formazan product by succinate tetrazolium reductase in mitochondria of viable cells. The absorbance of the complex is read spectrophotometrically and is directly proportional to the number of live or viable cells. Formazan formation can therefore be used to assess and determine the survival rate of cells.
Human hepatoma cell lines (HepG2) were obtained from American Type Culture Collection (Rockville, Md., USA) and cultured in Minimum Essential Medium Alpha (Invitrogen/Gibco BRL, Grand Island, N.Y., USA) at 37° C. in 5% CO2 in culture media supplemented with 10% fetal bovine serum (FBS) (Invitrogen/Gibco BRL) and 100 U/ml streptomycin and penicillin (Invitrogen/Gibco BRL).
100 μL of HepG2 cells (1×10^4 cells per well) were seeded in 96 well plates and pre-incubated. After 24 h, the cells were exposed to various concentrations of Compounds 1-11, and the known compound 4-hydroxy-2,3-dimethoxy-6-methyl-5-(3,7,11-trimethyldodeca-2,6,10-trienyl)cyclohex-2-enone (Compound S) in a volume of 200 μL for 48 h. 20 μL of MTT reagent (5 mg/mL) was added to each well and then incubated in 5% CO2 at 37° C. for 4 h. The media was replaced with 200 μL of DMSO to dissolve the MTT tetrazolium crystal. Absorbance was measured at 570 nm using a microplate reader.

Human HCC Mahlavu cells = experiment: Efficacy test on liver cancer xenograft model; format: in vivo, nude mice
Protocol: […] nude mice (National Laboratory Animal Center) of four to six weeks old were used and maintained in laminar flow cabinets under pathogen-free condition. Human HCC Mahlavu cells (1×10^6 cells) carrying luciferase gene were re-suspended in 20 μL of PBS containing 50% matrigel (BD Biosciences, MA) and injected into the left lateral liver lobe of athymic nude mice (National Laboratory Animal Center) with 27-gauge needle by sterile techniques (Lu et al., 2007). For bioluminescence imaging, the animals were injected with the luciferase substrate D-luciferin at a dose of 150 mg/kg in 0.2 mL sterile isotonic saline.
Tumor growth and metastatic status was monitored using the Xenogen […] (IVIS) imaging system every two weeks. All images were obtained after intraperitoneal injection of luciferin (100 mg/kg body weight; Synchem, Elk Grove Village, Ill., United States). […] Image analysis and bioluminescence quantification were performed using Living Image software (Caliper Life Sciences, Hopkinton, Mass., United States). […] The body weight was measured twice weekly.
The tumor-bearing mice were treated with vehicle (olive oil) or Compound 1 at 120 mg/kg by oral gavage twice per day and 5 days per week for 4 weeks. The tumor volume was measured twice weekly. ***P<0.005 compared to vehicle control. […]

SMILES: COC1=C(N(C)C)[C@@H](O)[C@@H](C/C=C(\C)CC/C=C(\C)CCC=C(C)C)[C@H](C)C1=O [Compound 4]
- IC50 [1]: 0.18 µg/mL (≈ 0.446 µM)
- inhibition against liver cancer cells compared to Compound S [1]: much better unexpected inhibition

SMILES: COC1=C(NCCc2c[nH]c3ccccc23)[C@@H](O)[C@@H](C/C=C(\C)CC/C=C(\C)CCC=C(C)C)[C@H](C)C1=O [Compound 11]
- IC50 [1]: 2.29 µg/mL (≈ 4.41 µM)

SMILES: COC1=C(OC)C(O)C(CC=C(C)CCC=C(C)CCC=C(C)C)C(C)C1=O (stereo not shown) [Compound S, 4-hydroxy-2,3-dimethoxy-6-methyl-5-(3,7,11-trimethyldodeca-2,6,10-trienyl)cyclohex-2-enone, reference compound]
- IC50 [1]: 2.4 µg/mL (≈ 6.14 µM)

SMILES: COC1=C(NCCO)[C@@H](O)[C@@H](C/C=C(\C)CC/C=C(\C)CCC=C(C)C)[C@H](C)C1=O [Compound 7]
- IC50 [1]: 1.95 µg/mL (≈ 4.65 µM)

SMILES: COC1=C(N)[C@@H](O)[C@@H](C/C=C(\C)CC/C=C(\C)CCC=C(C)C)[C@H](C)C1=O [Compound 1, (4S,5S,6S)-3-amino-4-hydroxy-2-methoxy-6-methyl-5-((2E,6E)-3,7,11-trimethyldodeca-2,6,10-trien-1-yl)cyclohex-2-enone]
- IC50 [1]: 0.13 µg/mL (≈ 0.346 µM)
- inhibition against liver cancer cells compared to Compound S [1]: much better unexpected inhibition
- tumor size (Human HCC Mahlavu cells; 120 mg/kg oral gavage twice per day, 5 days per week for 4 weeks, P<0.005 compared to vehicle control): decrease of the tumor size
- decrease of tumor mass compared with control (Human HCC Mahlavu cells; 120 mg/kg oral gavage, at the end of week 12): at least 4 folds

SMILES: COC1=C(NCCCN)[C@@H](O)[C@@H](C/C=C(\C)CC/C=C(\C)CCC=C(C)C)[C@H](C)C1=O [Compound 5]
- IC50 [1]: 0.87 µg/mL (≈ 2.01 µM)
- inhibition against liver cancer cells compared to Compound S [1]: much better unexpected inhibition

SMILES: COC1=C(NCc2cccs2)[C@@H](O)[C@@H](C/C=C(\C)CC/C=C(\C)CCC=C(C)C)[C@H](C)C1=O [Compound 10]
- IC50 [1]: 0.91 µg/mL (≈ 1.93 µM)
- inhibition against liver cancer cells compared to Compound S [1]: much better unexpected inhibition
